# Patent publication US10239832B2, “N-(1-hydroxy-3-(pyrrolidinyl)propan-2-yl)pyrrolidine-3-carboxamide derivatives as glucosylceramide synthase inhibitors” (BIOMARIN PHARMACEUTICAL INC., priority 2013, dated 2019)
# Biological target: T1, GCS (Canis lupus familiaris, UniProt A0A8I3MXG6)
# T1 construct: endogenous in cells; host or cells: MDCK (Madin-Darby canine kidney) cells, whole-cell lysate
# T1 sequence (A0A8I3MXG6 1-394): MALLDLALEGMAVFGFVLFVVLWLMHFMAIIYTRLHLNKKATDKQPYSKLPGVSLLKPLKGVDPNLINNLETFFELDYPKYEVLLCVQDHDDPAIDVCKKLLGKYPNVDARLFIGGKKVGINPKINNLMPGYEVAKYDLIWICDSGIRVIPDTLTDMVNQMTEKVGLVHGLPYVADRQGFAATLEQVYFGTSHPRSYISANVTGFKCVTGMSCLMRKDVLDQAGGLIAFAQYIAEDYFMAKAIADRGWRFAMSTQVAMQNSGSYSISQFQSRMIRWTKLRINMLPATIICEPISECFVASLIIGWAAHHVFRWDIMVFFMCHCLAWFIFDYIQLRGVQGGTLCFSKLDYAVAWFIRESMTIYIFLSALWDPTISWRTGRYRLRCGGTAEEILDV
# Experiment: GCS enzymatic assay (MDCK cell lysate, NBD-ceramide to glucosylceramide, LC/MS)
# Format: biochemical, canine
# Details: Table 2; class symbols A, B, C; the table does not say which of the assays; read-out: Data Range (IC50 values)
# Experimental: This assay was modified based on the study by Larsen et al. (J. Lipid Res. 2011, 53, 282). Madin-Darby canine kidney (MDCK) cell lysate was prepared using M-PER Mammalian Protein Extraction Reagent (Thermal Scientific) in the presence of a protease inhibitor cocktail (Roche). Protein concentration was determined using BCA assay kit (Pierce). […] 0.1% DMSO was used as mock treatment or control. The reaction was terminated by adding 100 μL acetonitrile solution and subjected to LC/MS analysis.
# The quantitative analysis of NBD-Ceramide and glucosylceramide was performed on a Shimadzu ultra-fast liquid chromatography (Shimadzu, Japan) coupled with API 4000 triple quadrupole mass spectrometer (Applied Biosystems, Concord, Ontario, Canada). Sample separation was conducted on a Waters Xbridge™ BEH130 C18, 100 mm×4.6 mm i.d, 3.5 μm (Milford, Mass., USA). The mobile phase consisted of water and acetonitrile supplemented with 0.1% formic acid (v/v). The flow rate was 1.0 mL/min. The initial mobile phase was 20% acetonitrile and was ramped in a linear fashion to 50% acetonitrile in 0.4 min. From 0.4 to 1.5 min, the gradient was ramped to 98% acetonitrile, and then was held at […] until 8.0 min. Acetonitrile was reset to 20% in 1.5 min, and maintained until 10.0 min. The total run time was 10.0 min. The MS/MS detection was performed in ESI positive mode. The mass transition of NBD-Ceramide was m/z 576.36→558.40 under the collision energy of 15 V, and the mass transition of glucosylceramide was m/z 738.35→558.40 under 21V collision energy. The cell lysate was diluted with equal volume of acetonitrile. Aliquots of 50 μL diluted samples were added to 1.5 mL tubes, and 100 μL of acetonitrile containing internal standard (100 ng/mL tolbutamide) were added for protein precipitation. The mixture were vortexed and then centrifuged at 13000 rpm for 10 min. 70 μL of supernatant were mixed with 140 μL of H2O and the final solution were injected for LC/MS/MS analysis and IC50's and/or percent inhibitions calculated.
row,SMILES,IC50
1,"CC1(C)CCc2ccc(N3CC[C@@H](C(=O)N[C@H](CN4CCCC4)[C@H](O)c4ccc5c(c4)OCCO5)C3)cc2O1 [Compound 71, (R)-N-((1R,2R)-1-(2,3-dihydrobenzo[b][1,4]dioxin-6-yl)-1-hydroxy-3-(pyrrolidin-1-yl)propan-2-yl)-1-(2,2-dimethylchroman-7-yl)pyrrolidine-3-carboxamide]",30 to 100 nM
2,"O=C(N[C@H](CN1CCCC1)[C@H](O)c1cc(F)c2c(c1)OCCO2)[C@@H]1CCN(c2ccc(Cl)c(-c3ccc(F)cc3)n2)C1 [Compound 144, (R)-1-(5-chloro-6-(4-fluorophenyl)pyridin-2-yl)-N((1R,2R)-1-(8-fluoro-2,3-dihydrobenzo[b][1,4]dioxin-6-yl)-1-hydroxy-3-(pyrrolidin-1-yl)propan-2-yl)pyrrolidine-3-carboxamide]",1 to 30 nM
3,"O=C(N[C@H](CN1CCCC1)[C@H](O)c1ccc(OC2CC2)c(Cl)c1)[C@@H]1CCN(c2ccc(Cl)c(OC3CCCCC3)c2)C1 [Compound 136, (R)-1-(4-chloro-3-(cyclohexyloxy)phenyl)-N-((1R,2R)-1-(3-chloro-4-cyclopropoxyphenyl)-1-hydroxy-3-(pyrrolidin-1-yl)propan-2-yl)pyrrolidine-3-carboxamide]",1 to 30 nM
4,"O=C(N[C@H](CN1CCCC1)[C@H](O)c1ccc(Cl)cc1)[C@@H]1CCN(c2ccc(Cl)cc2)C1 [Compound 156, (R)-1-(4-chlorophenyl)-N((1R,2R)-1-(4-chlorophenyl)-1-hydroxy-3-(pyrrolidin-1-yl)propan-2-yl)pyrrolidine-3-carboxamide]",100 to 1000 nM
5,"O=C(N[C@H](CN1CCCC1)[C@H](O)c1ccc(OC2CCOCC2)c(Cl)c1)[C@@H]1CCN(c2ccc3cc(F)ccc3c2)C1 [Compound 50, (R)-N-((1R,2R)-1-(3-chloro-4-((tetrahydro-2H-pyran-4-yl)oxy)phenyl)-1-hydroxy-3-(pyrrolidin-1-yl)propan-2-yl)-1-(6-fluoronaphthalen-2-yl)pyrrolidine-3-carboxamide]",1 to 30 nM
6,"O=C(N[C@H](CN1CCCC1)[C@H](O)c1ccc2c(c1)OCCO2)[C@H]1CCN(c2ccc(Cl)cc2)C1 [Compound 1D, (S)-1-(4-chlorophenyl)-N-((1R,2R)-1-(2,3-dihydrobenzo[b][1,4]dioxin-6-yl)-1-hydroxy-3-(pyrrolidin-1-yl)propan-2-yl)pyrrolidine-3-carboxamide]",30 to 100 nM
7,"O=C(N[C@H](CN1CCCC1)[C@H](O)c1ccc(OC2CC2)nc1)[C@@H]1CCN(c2ccc(Cl)cc2)C1 [Compound 13, (R)-1-(4-chlorophenyl)-N-((1R,2R)-1-(6-cyclopropoxypyridin-3-yl)-1-hydroxy-3-(pyrrolidin-1-yl)propan-2-yl)pyrrolidine-3-carboxamide]",30 to 100 nM
8,"O=C(N[C@H](CN1CCCC1)[C@H](O)c1ccc(OCCN2CCC2)c(Cl)c1)[C@@H]1CCN(c2ccc(Cl)cc2)C1 [Compound 60, (R)-N-((1R,2R)-1-(4-(2-(azetidin-1-yl)ethoxy)-3-chlorophenyl)-1-hydroxy-3-(pyrrolidin-1-yl)propan-2-yl)-1-(4-chlorophenyl)pyrrolidine-3-carboxamide]",1 to 30 nM
9,"O=C(N[C@H](CN1CCCC1)[C@H](O)c1ccc(OC2CC2)c(F)c1)[C@@H]1CCN(c2ccc(Cl)cc2)C1 [Compound 65, (R)-1-(4-chlorophenyl)-N((1R,2R)-1-(4-cyclopropoxy-3-fluorophenyl)-1-hydroxy-3-(pyrrolidin-1-yl)propan-2-yl)pyrrolidine-3-carboxamide]",1 to 30 nM
10,"O=C(N[C@H](CN1CCCC1)[C@H](O)c1ccc2c(c1)OCCO2)[C@@H]1CCN(c2cccc(-c3ccc(F)cc3)n2)C1 [Compound 123, (R)-N-((1R,2R)-1-(2,3-dihydrobenzo[b][1,4]dioxin-6-yl)-1-hydroxy-3-(pyrrolidin-1-yl)propan-2-yl)-1-(6-(4-fluorophenyl)pyridin-2-yl)pyrrolidine-3-carboxamide]",1 to 30 nM
11,"O=C(N[C@H](CN1CCCC1)[C@H](O)c1ccc(OC2CC2)c(Cl)c1)[C@@H]1CCN(c2cccc(Oc3ccccn3)c2)C1 [Compound 75, (R)-N-((1R,2R)-1-(3-chloro-4-cyclopropoxyphenyl)-1-hydroxy-3-(pyrrolidin-1-yl)propan-2-yl)-1-(3-(pyridin-2-yloxy)phenyl)pyrrolidine-3-carboxamide]",1 to 30 nM
12,"O=C(N[C@H](CN1CCCC1)[C@H](O)c1ccc(OC(F)F)cc1)[C@@H]1CCN(c2ccc(Cl)cc2)C1 [Compound 160, (R)-1-(4-chlorophenyl)-N-((1R,2R)-1-(4-(difluoromethoxy)phenyl)-1-hydroxy-3-(pyrrolidin-1-yl)propan-2-yl)pyrrolidine-3-carboxamide]",30 to 100 nM

# Same assay, conditions: Table 2; class symbols D, E, F, NA (not active); the table does not say which of the assays
row,SMILES,Data Range (% inhibition)
1,"O=C(N[C@H](CN1CCCC1)[C@H](O)c1ccc2c(c1)OCCO2)[C@H]1CCN(c2ccc(F)cc2)C1 [Compound 24C, (S)-N-((1R,2R)-1-(2,3-dihydrobenzo[b][1,4]dioxin-6-yl)-1-hydroxy-3-(pyrrolidin-1-yl)propan-2-yl)-1-(4-fluorophenyl)pyrrolidine-3-carboxamide]",NA (not active—a negative value was generated for % inhibition)
2,"Cc1cc(N2CC[C@@H](C(=O)N[C@H](CN3CCCC3)[C@H](O)c3ccc4c(c3)OCCO4)C2)cc(C)n1 [Compound 82, (R)-N-((1R,2R)-1-(2,3-dihydrobenzo[b][1,4]dioxin-6-yl)-1-hydroxy-3-(pyrrolidin-1-yl)propan-2-yl)-1-(2,6-dimethylpyridin-4-yl)pyrrolidine-3-carboxamide]",NA (not active—a negative value was generated for % inhibition)

# Second part, the compound after the results:
row,Data Range (% inhibition),SMILES
1,F (1-49% (or less than 50%)),"O=C(N[C@H](CN1CCCC1)[C@H](O)c1ccc2c(c1)OCCO2)C1CCN(c2ccc(Cl)cn2)C1 (stereo partly drawn) [Compound 28C, 1-(5-chloropyridin-2-yl)-N-((1R,2R)-1-(2,3-dihydrobenzo[b][1,4]dioxin-6-yl)-1-hydroxy-3-(pyrrolidin-1-yl)propan-2-yl)pyrrolidine-3-carboxamide]"
2,E (50-74% (or less than 75%)),"O=C(N[C@H](CN1CCCC1)[C@H](O)c1ccc(OC2CCOCC2)c(Cl)c1)[C@H]1CCN(c2ccc3cc(F)ccc3c2)C1 [Compound 50A, (S)-N-((1R,2R)-1-(3-chloro-4-((tetrahydro-2H-pyran-4-yl)oxy)phenyl)-1-hydroxy-3-(pyrrolidin-1-yl)propan-2-yl)-1-(6-fluoronaphthalen-2-yl)pyrrolidine-3-carboxamide]"
3,F (1-49% (or less than 50%)),"O=C(N[C@H](CN1CCCC1)[C@H](O)c1ccc2c(c1)OCCO2)[C@H]1CCN(c2ccc3ccccc3n2)C1 [Compound 72B, (S)-N-((1R,2R)-1-(2,3-dihydrobenzo[b][1,4]dioxin-6-yl)-1-hydroxy-3-(pyrrolidin-1-yl)propan-2-yl)-1-(quinolin-2-yl)pyrrolidine-3-carboxamide]"
4,D (75-100%),"O=C(N[C@H](CN1CCCC1)[C@H](O)c1ccc2c(c1)OCCO2)C1CCN(c2ccc3cc(F)ccc3c2Cl)C1 (stereo partly drawn) [Compound 88C, 1-(1-chloro-6-fluoronaphthalen-2-yl)-N-((1R,2R)-1-(2,3-dihydrobenzo[b][1,4]dioxin-6-yl)-1-hydroxy-3-(pyrrolidin-1-yl)propan-2-yl)pyrrolidine-3-carboxamide]"
